Test results reported in patent US11459339B2, “Biaryl derivative, preparation method thereof and pharmaceutical application thereof” (Abbisko Therapeutics Co., Ltd., priority 2018, dated 2022).
pEC50, pIC50: −log10 of the molar value.

Columns and labels:
[1] = target: interaction between PD-1 and PD-L1 (Homo sapiens (Human), UniProt Q9NZQ7); experiment: PD1-PDL1 HTRF binding activity test (Cisbio PD-1/PD-L1 binding assay kit); details: read-out: PD1-PDL1 HTRF Binding Activity IC50
Protocol: A. PD1-PDL1 HTRF Binding Activity Test
The effect of compounds and positive compounds of the examples of the present invention on the interaction between PD-1 and PD-L1 was determined by the PD-1/PD-L1 binding assay kit from Cisbio (#64ICP01PEG or 64ICP01PEH). The detailed experimental process was as follows:
1. Pre-diluted compound solution, 4 μL of Tag1-PD-L1 and 4 μL of Tag2-PD1 were added to each well of a 384-well plate;
3. After incubated for 2 hrs at room temperature or overnight at 4° C., plates were read on Envision of Pelkin Elmer; and readings at 665 nm and 620 nm were recorded, and the ratio of the two readings was taken as a reading for each well;
4. The reading of each well after compound treatment was compared with the reading of DMSO treated wells to obtain the percent inhibition of the compound; and
5. IC50 values of compounds and positive compounds of the examples of the present invention were determined by non-linear regression analysis of percent inhibition at different compound concentrations.

[2] = target: interaction between PD-1 and PD-L1 expressed on cell surfaces (Homo sapiens (Human), UniProt Q9NZQ7); experiment: Jurkat reporter gene cellular assay (Jurkat/NF-κB-luc/PD1 cells cocultured with Raji-PD-L1 cells, OKT-3 stimulation); assay type: cell-based; details: NF-κB-luc reporter activation fold, 6 hrs; read-out: Cell Activity EC50
Chain of interaction between PD-1 and PD-L1 expressed on cell surfaces (Q9NZQ7 19-290): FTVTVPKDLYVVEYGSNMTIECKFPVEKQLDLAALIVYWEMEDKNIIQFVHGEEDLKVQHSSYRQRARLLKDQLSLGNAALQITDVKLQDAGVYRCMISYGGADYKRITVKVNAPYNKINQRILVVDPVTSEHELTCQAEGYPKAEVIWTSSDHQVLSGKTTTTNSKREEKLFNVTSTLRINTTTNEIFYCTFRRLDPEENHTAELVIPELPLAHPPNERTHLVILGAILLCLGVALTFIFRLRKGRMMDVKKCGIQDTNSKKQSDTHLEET
Protocol: B. Jurkat Reporter Gene Cellular Assay
The effect of compounds of the examples of the present invention and positive compounds on the interaction between PD-1 and PD-L1 expressed on cell surfaces, and the related influence on T cell functions, were determined by a Jurkat reporter gene cellular assay.
Briefly, the reporter gene plasmid of NF-κB-luc and the plasmid of human PD-1 were transfected into Jurkat cells to establish a stably transfected cell line capable of stably expressing both PD-1 and NF-κB-Luc reporter genes; the expression level of PD-1 on the cell surface was confirmed by flow cytometry: and the expression of the reporter gene was confirmed via the response of the reporter gene stimulated by OKT-3 and Raiji cells.
In addition, the plasmid of human PD-L1 was transfected into Raji cells to obtain a cell line capable of stably expressing PD-L1. Jurkat/NF-κB-luc/PD1 cells and Raji-PD-L1 cells were then cocultured and stimulated with OKT-3. On this basis, the compounds were added, and the enhancement of the signal pathway of T cell activation by the inhibitory effect of the compounds on the interaction between PD-1 and PD-L1 was evaluated by readings of reporter gene responses. The specific experimental process was as follows:
2. 20 μL of Raji-PD-L1 cell suspension was added to each well with 5*10^4 cells for each well, and was incubated in an incubator for 20 min;
3. 20 μL of Jurkat/NF-κb-luc/PD-1 cell suspension was added to each well with 5*10^4 cells for each well, and well mixed, and 6 hrs later, Bright-glo (Promega, E2620) was applied and plates were read on Envision;
4. the reading of each well treated with the compound was compared with the reading of each well treated with DMSO to obtain the activation fold of the compound; and
5. EC50 values of compounds and positive compounds of the examples of the present invention were determined by non-linear regression analysis of activation folds at different compound concentrations.

Chain of interaction between PD-1 and PD-L1 (Q9NZQ7 19-238): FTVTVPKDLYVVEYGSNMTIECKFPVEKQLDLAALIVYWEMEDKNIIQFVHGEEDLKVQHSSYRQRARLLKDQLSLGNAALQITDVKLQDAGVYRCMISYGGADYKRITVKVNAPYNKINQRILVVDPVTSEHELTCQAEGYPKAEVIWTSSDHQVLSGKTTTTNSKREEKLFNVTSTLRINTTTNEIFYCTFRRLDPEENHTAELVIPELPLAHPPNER

Row | SMILES | pIC50 [1] | pEC50 [2]
1 | COc1cc(C(=O)Nc2cccc(-c3cccc(NC(=O)c4cc(OC)c(CN5CC(O)C5)cn4)c3C)c2C)ncc1CN1CC(O)C1 [Example 45, N,N'-(2,2′-dimethyl-[1,1′-biphenyl]-3,3′-diyl)bis(5-((3-hydroxyazetidin-l-yl)methyl)-4-methoxypicolinamide)] | 9.66 | 7.39
2 | COc1cc(C(=O)Nc2cccc(-c3cccc(NC(=O)c4cc(OC)c(CN5CC[C@@H](O)C5)cn4)c3C)c2C)ncc1CN1CC[C@@H](O)C1 [Example 47, N,N'-(2,2′-dimethyl-[1,1′-biphenyl]-3,3′-diyl)bis(5-(((R)-3-hydroxypyrrolidin-1-yl)methyl)-4-methoxypicolinamide)] | 9.57 | 7.34
3 | COc1cc(C(=O)Nc2cccc(-c3cccc(NC(=O)c4cc(OC)c(CN5CC[C@H](O)C5)cn4)c3C)c2C)ncc1CN1CC[C@H](O)C1 [Example 48, N,N'-(2,2′-dimethyl-[1,1′-biphenyl]-3,3′-diyl)bis(5-(((S)-3-hydroxypyrrolidin-1-yl)methyl)-4-methoxypicolinamide)] | 9.51 | 6.99
4 | COc1cc(C(=O)Nc2cccc(-c3cccc(NC(=O)c4cc(OC)c(CN5CCC(O)CC5)cn4)c3C)c2C)ncc1CN1CCC(O)CC1 [Example 49, N,N'-(2,2′-dimethyl-[1,1′-biphenyl]-3,3′-diyl)bis(5-((4-hydroxypiperidin-l-yl)methyl)-4-methoxypicolinamide)] | 9.48 | 6.98
5 | COc1cc(C(=O)Nc2cccc(-c3cccc(NC(=O)c4cc(OC)c(CN5CC[C@@H](OC)C5)cn4)c3C)c2C)ncc1CN1CC[C@@H](OC)C1 [Example 50, N,N'-(2,2′-dimethyl-[1,1′-biphenyl]-3,3′-diyl)bis(4-methoxy-5-(((R)-3-methoxypyrrolidin-1-yl)methyl)picolinamide)] | 9.48 | 6.64
6 | COc1cc(C(=O)Nc2cccc(-c3cccc(NC(=O)c4cc(OC)c(CN5CC(OC)C5)cn4)c3C)c2C)ncc1CN1CC(OC)C1 [Example 51, N,N'-(2,2′-dimethyl-[1,1′-biphenyl]-3,3′-diyl)bis(4-methoxy-5-((3-methoxyazetidin-1-yl)methyl)picolinamide)] | 9.66 | 6.54
7 | COc1cc(C(=O)Nc2cccc(-c3cccc(NC(=O)c4cc(OC)c(CN5CC(C)(OC)C5)cn4)c3C)c2C)ncc1CN1CC(C)(OC)C1 [Example 52, N,N'-(2,2′-dimethyl-[1,1′-biphenyl]-3,3′-diyl)bis(4-methoxy-5-((3-methoxy-3-methylazetidin-1-yl)methyl)picolinamide)] | 9.40 | 6.29
8 | COc1cc(C(=O)Nc2cccc(-c3cccc(NC(=O)c4cc(OC)c(CN[C@H]5C[C@@H](O)C5)cn4)c3C)c2C)ncc1CN[C@H]1C[C@@H](O)C1 [Example 53, N,N'-(2,2′-dimethyl-[1,1′-biphenyl]-3,3′-diyl)bis(5-((((1s,3s)-3-hydroxycyclobutyl)amino)methyl)-4-methoxypicolinamide)] | 9.82 | 7.28
9 | COc1cc(C(=O)Nc2cccc(-c3cccc(NC(=O)c4cc(OC)c(CNC5COC5)cn4)c3C)c2C)ncc1CNC1COC1 [Example 54, N,N'-(2,2′-dimethyl-[1,1′-biphenyl]-3,3′-diyl)bis(4-methoxy-5-((oxetan-3-ylamino)methyl)picolinamide)] | 9.68 | 5.32
10 | COc1cc(C(=O)Nc2cccc(-c3cccc(NC(=O)c4cc(OC)c(CN[C@H]5CCOC5)cn4)c3C)c2C)ncc1CN[C@H]1CCOC1 [Example 55, N,N'-(2,2′-dimethyl-[1,1′-biphenyl]-3,3′-diyl)bis(4-methoxy-5-((((S)-tetrahydrofuran-3-yl)amino)methyl)picolinamide)] | 9.40 | 7.09
11 | COc1cc(C(=O)Nc2cccc(-c3cccc(NC(=O)c4cc(OC)c(CN[C@@H]5CCOC5)cn4)c3C)c2C)ncc1CN[C@@H]1CCOC1 [Example 56, N,N'-(2,2′-dimethyl-[1,1′-biphenyl]-3,3′-diyl)bis(4-methoxy-5-((((R)-tetrahydrofuran-3-yl)amino)methyl)picolinamide)] | 9.19 | 6.76
12 | COc1cc(C(=O)Nc2cccc(-c3cccc(NC(=O)c4cc(OC)c(CN5CC6(COC6)C5)cn4)c3C)c2C)ncc1CN1CC2(COC2)C1 [Example 58, N,N'-(2,2′-dimethyl-[1,1′-biphenyl]-3,3′-diyl)bis(5-((2-oxa-6-azaspiro[3.3]heptan-6-yl)methyl)-4-methoxypicolinamide)] | 9.66 | 6.20
13 | COc1cc(C(=O)Nc2cccc(-c3cccc(NC(=O)c4cc(OC)c(CNC[C@@H](O)CC(=O)O)cn4)c3C)c2C)ncc1CNC[C@@H](O)CC(=O)O [Example 59] | 9.51 | 7.15
14 | COc1cc(C(=O)Nc2cccc(-c3cccc(NC(=O)c4cc(OC)c(CN[C@H]5C[C@@H](C(=O)O)C5)cn4)c3C)c2C)ncc1CN[C@H]1C[C@@H](C(=O)O)C1 [Example 60, (1s,1′s,3s,3′s)-3,3′-((((((2,2′-dimethyl-[1,1′-biphenyl]-3,3′-diyl)bis(azanediyl))bis(carbonyl))bis(4-methoxypyridine-6,3-diyl))bis(methylene))bis(azanediyl))bis (cyclobutane-1-carboxylic acid)] | 10.47 | 6.24
15 | COc1cc(C(=O)Nc2cccc(-c3cccc(NC(=O)c4cc(OC)c(CN5CCC[C@H]5C(=O)O)cn4)c3C)c2C)ncc1CN1CCC[C@H]1C(=O)O [Example 61, (2′S)-(((((2,2′-dimethyl-[1,1′-biphenyl]-3,3′-diyl)bis(azanediyl))bis(carbonyl))bis(4-methoxypyridine-6,3-diyl))bis(methylene))di-L-proline] | 9.74 | 6.50
16 | COc1cc(C(=O)Nc2cccc(-c3cccc(NC(=O)c4cc(OC)c(CN5C[C@H](O)C[C@H]5C(=O)O)cn4)c3C)c2C)ncc1CN1C[C@H](O)C[C@H]1C(=O)O [Example 62, (2S,2′S,4R,4′R)-1,1′-(((((2,2′-dimethyl-[1,1′-biphenyl]-3,3′-diyl)bis(azanediyl))bis(carbonyl))bis (4-methoxypyridine-6,3-diyl))bis (methylene))bis(4-hydroxypyrrolidine-2-carboxylic acid)] | 9.60 | 6.19
17 | COc1cc(C(=O)Nc2cccc(-c3cccc(NC(=O)c4cc(OC)c(CN5CCOC[C@H]5C(=O)O)cn4)c3C)c2C)ncc1CN1CCOC[C@H]1C(=O)O [Example 63, (3S,3′S)-4,4′(((((2,2′-dimethyl-[1,1′-biphenyl]-3-3′-diyl)bis(azanediyl))bis (carbonyl))bis(4-methoxypyridine-6,3-diyl))bis(methylene))bis(morpholine-3-carboxylic acid)] | 9.60 | 5.34
18 | COC(=O)CNCc1cnc(C(=O)Nc2cccc(-c3cccc(NC(=O)c4cc(OC)c(CNCC(=O)OC)cn4)c3C)c2C)cc1OC [Example 66] | 9.19 | 6.16
19 | COc1cc(C(=O)Nc2cccc(-c3cccc(NC(=O)c4cc(OC)c(CNCC(=O)O)cn4)c3C)c2C)ncc1CNCC(=O)O [Example 67] | 9.29 | 6.46
20 | COc1cc(C(=O)Nc2cccc(-c3cccc(NC(=O)c4cc(OC)c(CN[C@H]5CCOC5=O)cn4)c3C)c2C)ncc1CN[C@H]1CCOC1=O [Example 68] | 9.51 | 6.58
21 | COc1cc(C(=O)Nc2cccc(-c3cccc(NC(=O)c4cc(OC)c(CN[C@@H](CCO)C(=O)O)cn4)c3C)c2C)ncc1CN[C@@H](CCO)C(=O)O [Example 69] | 9.41 | 6.98
22 | COc1cc(C(=O)Nc2cccc(-c3cccc(NC(=O)c4cc(OC)c(CN[C@@H]5CCOC5=O)cn4)c3C)c2C)ncc1CN[C@@H]1CCOC1=O [Example 70, N,N'-(2,2′-dimethyl-[1,1′-biphenyl]-3,3′-diyl)bis(4-methoxy-5-((((R)-2-oxotetrahydrofuran-3-yl)amino)methyl)picolinamide)] | 9.27 | 5.66
23 | COc1cc(C(=O)Nc2cccc(-c3cccc(NC(=O)c4cc(OC)c(CN[C@H](CCO)C(=O)O)cn4)c3C)c2C)ncc1CN[C@H](CCO)C(=O)O [Example 71] | 9.48 | 6.12
